Assay results reported in patent US10703756B2, “Pyrrolo[2,3-D]pyrimidinyl, pyrrolo[2,3-B]pyrazinyl, pyrrolo[2,3-B]pyridinyl acrylamides and epoxides thereof” (Pfizer Inc., priority 2015, dated 2020).

How the values were obtained:
[1] = test system: IL-15 induced P-STAT5 in human PBMC; assay: PBMC IL-15 Induced P-STAT5; assay type: cell-based; conditions: human PBMC, IL-15 final 41 ng/mL; read-out: PBMC IL15_pSTAT5_IC50
Description: PBMC IL-15 Induced P-STAT5
Test compounds were serially diluted in DMSO, with further dilution of the compounds in RPMI 1640 medium (Invitrogen #72400) supplemented with 10 mM HEPES, pH 7.4, 1 mM sodium pyruvate, and Penicillin/Streptomycin (by adding 5 μL compound/DMSO in 120 μL Dulbecco's Phosphate-Buffered Saline (D-PBS, 1×), [DMSO]=4%, and mixing the solution by repeated pipetting, 6×). IL-15 was diluted to the concentration at 820 ng/mL in RPMI 1640 medium.
Frozen human PBMC (200-250 million cells/vial) was thawed at 37° C. The cells were transferred to 10 mL warm medium in a 50-mL conical tube, and centrifuged at 1,200 RPM at room temperature for 5 min. The supernatant was aspirated. Cells were suspended in 3 mL warm human plasma and incubated at 37° C. in a tissue culture incubator for 1.5 to 2 h. After adding 47 ml D-PBS (37° C.) to PBMC/FBS suspension, centrifuging at 1,200 RPM at room temperature for 5 min, and aspirating the supernatant, the cells were resuspended in 20 mL warm RPMI medium. Ninety μL of cell suspension were pipetted per well in a 96-well, deep-well, V-bottom plate, and the plate was incubated at 37° C. for 30 min. Five μL of compound were transferred to each well (final 0.2% DMSO), vortex gently and incubate at 37° C. for 15 min; 5 μL 4% DMSO/PBS were added to the control wells. After adding 5 μL 820 ng/mL of human IL-15 (final 41 ng/mL) to each well (5 μL PBS to the control wells), vortexing gently and incubating at 37° C. for 15 min, followed by 0.3 mL 1% paraformaldehyde/PBS (37° C.) to each well, and incubating the plate at room temperature for 15 min, the plates were centrifuged at 1,200 RPM (Beckman GS-6R or Sorvall Legend) at room temperature for 5 min, and the supernatant was aspirated using a 8-channel or 12-channel manifold. After adding 0.8 mL staining buffer per well, the plates were centrifuged at 1,200 RPM (Beckman GS-6R or Sorvall Legend) at room temperature for 5 min, and again the supernatant was aspirated using a 8-channel or 12-channel manifold. The plate was vortexed, and 0.35 mL 90% methanol/10% H2O (−20° C.) was added per well, and the plate incubated on ice for 20 min. After again adding 0.8 mL staining buffer per well, the plates were centrifuged at 1,200 RPM (Beckman GS-6R or Sorvall Legend) at room temperature for 5 min, and again the supernatant was aspirated using a 8-channel or 12-channel manifold, and then 0.8 mL Staining buffer was added per well. After once again adding 0.8 mL staining buffer per well, the plates were centrifuged at 1,200 RPM (Beckman GS-6R or Sorvall Legend) at room temperature for 5 min, and again the supernatant was aspirated using a 8-channel or 12-channel manifold. Then the plate was vortexed, and 250 μL/well of Alexa Fluor® 647 conjugated anti-STAT5 antibody ([…]; […]) was added, and the plate was incubated at 4° C. overnight in the dark. Samples of 250 μL/well were transferred to a 96-well U-bottom plate, and the FACS analysis was performed gating on total lymphocytes. Samples were analyzed using a BD Calibur™ or BD FACSCanto™ flow cytometer equipped with the BD High Throughput Sampler.

JAK3 enzyme [2] = molecular target: T1, JAK3 enzyme (Homo sapiens, UniProt P52333); assay: JAK Caliper Enzyme Assay at 1 mM ATP; assay type: biochemical
T1 sequence (P52333 1-1124): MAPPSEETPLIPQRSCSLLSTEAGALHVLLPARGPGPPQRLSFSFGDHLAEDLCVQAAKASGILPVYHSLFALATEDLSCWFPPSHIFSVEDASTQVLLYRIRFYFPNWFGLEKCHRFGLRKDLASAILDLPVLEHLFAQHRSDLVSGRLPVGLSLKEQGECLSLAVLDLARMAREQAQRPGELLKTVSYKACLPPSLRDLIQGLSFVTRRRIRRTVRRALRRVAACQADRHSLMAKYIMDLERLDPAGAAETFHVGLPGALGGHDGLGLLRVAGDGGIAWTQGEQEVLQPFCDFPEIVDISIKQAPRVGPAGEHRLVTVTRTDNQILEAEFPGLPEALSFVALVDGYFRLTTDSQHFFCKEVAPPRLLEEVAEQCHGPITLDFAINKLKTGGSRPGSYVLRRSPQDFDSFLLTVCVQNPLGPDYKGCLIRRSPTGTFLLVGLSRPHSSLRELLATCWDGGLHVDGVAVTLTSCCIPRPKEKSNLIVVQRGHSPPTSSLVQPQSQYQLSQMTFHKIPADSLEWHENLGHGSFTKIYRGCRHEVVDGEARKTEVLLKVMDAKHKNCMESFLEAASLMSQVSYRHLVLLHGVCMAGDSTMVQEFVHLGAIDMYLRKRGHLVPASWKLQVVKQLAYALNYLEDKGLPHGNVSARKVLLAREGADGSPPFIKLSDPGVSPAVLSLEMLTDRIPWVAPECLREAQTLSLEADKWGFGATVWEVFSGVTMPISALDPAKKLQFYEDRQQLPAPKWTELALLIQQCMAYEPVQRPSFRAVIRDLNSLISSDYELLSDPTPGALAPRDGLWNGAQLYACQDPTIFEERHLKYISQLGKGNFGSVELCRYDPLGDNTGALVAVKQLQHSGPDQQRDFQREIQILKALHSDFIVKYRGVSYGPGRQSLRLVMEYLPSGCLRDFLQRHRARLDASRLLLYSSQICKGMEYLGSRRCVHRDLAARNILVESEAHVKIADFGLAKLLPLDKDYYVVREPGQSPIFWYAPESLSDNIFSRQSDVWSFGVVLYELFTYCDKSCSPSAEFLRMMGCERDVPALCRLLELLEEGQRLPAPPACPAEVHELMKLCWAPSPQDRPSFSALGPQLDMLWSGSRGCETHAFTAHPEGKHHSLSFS
Procedure, shortened: (§1)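 First, compound stocks in DMSO were serially diluted half-log over 11 points, starting at 600 μM. Next, reactions ran with batch-optimized enzyme and timing targeting 20%-30% phosphorylation. Finally, wells were sampled and product separated from substrate peptide electrophoretically.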

JAK3 enzyme [3] = molecular target: T1, JAK3 enzyme; assay: JAK Caliper Enzyme Assay at 4 μM ATP; assay type: biochemical
Procedure, shortened: as §1

| Structure (SMILES) | IC50 [1] [nM] | IC50 (JAK3 enzyme [2]) [nM] | IC50 (JAK3 enzyme [3]) [nM] |
| --- | --- | --- | --- |
| C=CC(=O)N1CCC(Nc2cnc3[nH]cc(C(=O)NC4CCC4)c3n2)CC1C (racemic) [Example 320, Racemic-2-[(1-acryloyl-2-methylpiperidin-4-yl)amino]-N-cyclobutyl-5H-pyrrolo[2,3-b]pyrazine-7-carboxamide] | 1250 | 182 | 2.16 |
| C=CC(=O)N1CCC(C)(Nc2cnc3[nH]cc(C(=O)NCCCC(F)(F)F)c3n2)CC1 [Example 333, 2-[(1-acryloyl-4-methylpiperidin-4-yl)amino]-N-(4,4,4-trifluorobutyl)-5H-pyrrolo[2,3-b]pyrazine-7-carboxamide] | 774 | 44 | 0.307 |
| C=CC(=O)N1CCC(Oc2cnc3[nH]cc(C(=O)NCC(C)(F)F)c3n2)CC1 [Example 215, 2-[(1-acryloylpiperidin-4-yl)oxy]-N-(2,2-difluoropropyl)-5H-pyrrolo[2,3-b]pyrazine-7-carboxamide] | 619 | 97 | 0.782 |
| C=CC(=O)N1CCC(Nc2cnc3[nH]cc(C(=O)NCc4nc5cc(F)ccc5o4)c3n2)CC1 [Example 177, 2-[(1-acryloylpiperidin-4-yl)amino]-N-[(5-fluoro-1,3-benzoxazol-2-yl)methyl]-5H-pyrrolo[2,3-b]pyrazine-7-carboxamide] | 420 | 25 | 0.626 |
| C=CC(=O)N1CCC(C)(Oc2cnc3[nH]cc(C(=O)NCC)c3n2)CC1 [Example 61, 2-[(1-acryloyl-4-methylpiperidin-4-yl)oxy]-N-ethyl-5H-pyrrolo[2,3-b]pyrazine-7-carboxamide] | 2170 | 564 | 3.39 |
| C=CC(=O)N1C[C@H](Nc2cnc3[nH]cc(C(=O)NCCOC)c3n2)[C@](C)(C#N)C1 [Example 245, 2-{[(3R,4R)-1-acryloyl-4-cyano-4-methylpyrrolidin-3-yl]amino}-N-(2-methoxyethyl)-5H-pyrrolo[2,3-b]pyrazine-7-carboxamide] | > 10000 | 297 | 1.77 |
| C=CC(=O)N1CC[C@H](Nc2cnc3[nH]cc(C(=O)NCC4CC(F)(F)C4)c3n2)[C@H](OC)C1 [Example 322, 2-{[(3R,4S)-1-acryloyl-3-methoxypiperidin-4-yl]amino}-N-[(3,3-difluorocyclobutyl)methyl]-5H-pyrrolo[2,3-b]pyrazine-7-carboxamide] | 428 | 47 | 0.269 |
| C=CC(=O)N1CCN(c2cnc3[nH]cc(C(=O)N[C@H](C)CC#N)c3n2)CC1(C)C [Example 152, 2-(4-acryloyl-3,3-dimethylpiperazin-1-yl)-N-[(2R)-1-cyanopropan-2-yl]-5H-pyrrolo[2,3-b]pyrazine-7-carboxamide] | 510 | 256 | 1.97 |
| C=CC(=O)N1CCC(Nc2cnc3[nH]cc(C(=O)NCc4cnn(-c5cccc(F)c5)c4)c3n2)CC1 [Example 192, 2-[(1-acryloylpiperidin-4-yl)amino]-N-{[1-(3-fluorophenyl)-1H-pyrazol-4-yl]methyl}-5H-pyrrolo[2,3-b]pyrazine-7-carboxamide] | 907 | 29 | 0.627 |
| C=CC(=O)N1CC[C@H](Nc2cnc3[nH]cc(C(=O)NC4CC(F)(F)C4)c3n2)[C@H](OC)C1 [Example 277, 2-{[(3R,4S)-1-acryloyl-3-methoxypiperidin-4-yl]amino}-N-(3,3-difluorocyclobutyl)-5H-pyrrolo[2,3-b]pyrazine-7-carboxamide] | 2320 | 155 | 0.59 |
| C=CC(=O)N1CCC(Nc2cnc3[nH]cc(C(=O)NCc4ccc(-n5cccn5)cc4)c3n2)CC1 [Example 183, 2-[(1-acryloylpiperidin-4-yl)amino]-N-[4-(1H-pyrazol-1-yl)benzyl]-5H-pyrrolo[2,3-b]pyrazine-7-carboxamide] | 1590 | 41 | 1.03 |
| C=CC(=O)N1CC[C@H](Oc2cnc3[nH]cc(C(=O)NCC)c3n2)[C@@H](C)C1 (single isomer, unassigned) [Example 48] | 6690 | 3060 | 49.1 |
| C=CC(=O)N1CCC(Oc2cnc3[nH]cc(C(=O)NC(CC)C4(O)CCC4)c3n2)CC1 (racemic) [Example 213, Racemic-2-[(1-acryloylpiperidin-4-yl)oxy]-N-[1-(1-hydroxycyclobutyl)propyl]-5H-pyrrolo[2,3-b]pyrazine-7-carboxamide] | 1720 | 343 | 3.07 |
| C=CC(=O)N1CCC(Oc2cnc3[nH]cc(C(=O)NCC4CC(F)(F)C4)c3n2)CC1 [Example 197, 2-[(1-acryloylpiperidin-4-yl)oxy]-N-[(3,3-difluorocyclobutyl)methyl]-5H-pyrrolo[2,3-b]pyrazine-7-carboxamide] | 706 | 147 | 0.788 |
| C=CC(=O)N1CC[C@@H](Nc2cnc3[nH]cc(C(=O)NCC)c3n2)[C@H](OC)C1 (single isomer, unassigned) [Example 26] | 1930 | 99 | 1.65 |
| C=CC(=O)N1CCC(Nc2cnc3[nH]cc(C(=O)NCc4nc(C)cc(C(F)(F)F)n4)c3n2)CC1 [Example 171, 2-[(1-acryloylpiperidin-4-yl)amino]-N-{[4-methyl-6-(trifluoromethyl)pyrimidin-2-yl]methyl}-5H-pyrrolo[2,3-b]pyrazine-7-carboxamide] | 947 | 55 | 0.928 |
| C=CC(=O)N1CCN(c2cnc3[nH]cc(C(=O)NCC(C)(C)C)c3n2)CC1(C)C [Example 285, 2-(4-acryloyl-3,3-dimethylpiperazin-1-yl)-N-(2,2-dimethylpropyl)-5H-pyrrolo[2,3-b]pyrazine-7-carboxamide] | 1790 | 515 | 4.05 |
